Results: publication PMC5344255, “Design, Synthesis and Biochemical Evaluation of Novel Selective Estrogen Receptor Ligand Conjugates Incorporating an Endoxifen-Combretastatin Hybrid Scaffold” (Biomedicines, 2016)
Values joined by “and” are separate entries in the source; they are usually repeats but may differ in a detail not shown here. Equal entries are not always repeated. Where two headings read alike, the source gives them in different places. Marks after values point to notes of the source that are not given here.

Key:
MOLT-4 = experiment: NCI 60 cell line screen; format: cell-based, human; settings: MOLT-4 (Leukemia)
A498 = experiment: NCI 60 cell line screen; format: cell-based
OVCAR-3 = experiment: NCI 60 cell line screen; format: cell-based, human; settings: OVCAR-3 (Ovarian Cancer); one-dose 10 µM
SF-268 = experiment: NCI 60 cell line screen; format: cell-based, human; settings: SF-268 (CNS Cancer)
HL-60 (TB) = experiment: NCI 60 cell line screen; format: cell-based, human; settings: HL-60 (TB) (Leukemia)
HOP-62 = experiment: NCI 60 cell line screen; format: cell-based, human; settings: HOP-62 (Non-Small Cell Lung Cancer)
HT29 = experiment: NCI 60 cell line screen; format: cell-based, human; settings: HT29 (Colon Cancer)
NCI-H332M = experiment: NCI 60 cell line screen; format: cell-based, human; settings: NCI-H332M (Non-Small Cell Lung Cancer)
LOX IMV1 = experiment: NCI 60 cell line screen; format: cell-based, human; settings: LOX IMV1 (Melanoma); one-dose 10 µM
EKVX = experiment: NCI 60 cell line screen; format: cell-based, human; settings: EKVX (Non-Small Cell Lung Cancer)
SW-620 = experiment: NCI 60 cell line screen; format: cell-based, human; settings: SW-620 (Colon Cancer)
NCI-H23 = experiment: NCI 60 cell line screen; format: cell-based
MDA-MB-231/ATCC = experiment: NCI 60 cell line screen; format: cell-based, human; settings: MDA-MB-231/ATCC (Breast Cancer); one-dose 10 µM
NCI/ADR-RES = experiment: NCI 60 cell line screen; format: cell-based, human; settings: NCI/ADR-RES (Ovarian Cancer); one-dose 10 µM
IGROV1 = experiment: NCI 60 cell line screen; format: cell-based, human; settings: IGROV1 (Ovarian Cancer); one-dose 10 µM
HCT-116 = experiment: NCI 60 cell line screen; format: cell-based, human; settings: HCT-116 (Colon Cancer)
COLO 205 = experiment: NCI 60 cell line screen; format: cell-based
SNB-19 = experiment: NCI 60 cell line screen; format: cell-based, human; settings: SNB-19 (CNS Cancer)
[1] = tested on: MCF-7 human breast cancer cells; experiment: Lactate dehydrogenase (LDH) cytotoxicity assay in MCF-7; format: cell-based; settings: % cell lysis at 10 µM
Summary of the method: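 Cells seeded at 1 × 10^4 per well and grown 24 h, then dosed with compounds over 1 nM–50 μM. Cell lysis quantified as released cytoplasmic LDH using the CytoTox 96 nonradioactive cytotoxicity assay.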

NCI 60 cell lines = experiment: NCI 60 cell line screen, values over the panel; format: cell-based; settings: Homo sapiens
SF295 = experiment: NCI 60 cell line screen; format: cell-based, human; settings: SF295 (CNS Cancer)
SK-MEL-5 = experiment: NCI 60 cell line screen; format: cell-based
OVCAR-5 = experiment: NCI 60 cell line screen; format: cell-based, human; settings: OVCAR-5 (Ovarian Cancer); one-dose 10 µM
UO-31 = experiment: NCI 60 cell line screen; format: cell-based, human; settings: UO-31 (Renal Cancer); one-dose 10 µM
[2] = tested on: MDA-MB-231 human breast cancer cells; experiment: MTT assay for antiproliferative effects in MDA-MB-231; format: cell-based; settings: MDA-MB-231, MTT assay
786-0 = experiment: NCI 60 cell line screen; format: cell-based, human; settings: 786-0 (Renal Cancer); one-dose 10 µM
HOP-92 = experiment: NCI 60 cell line screen; format: cell-based, human; settings: HOP-92 (Non-Small Cell Lung Cancer)

What does the source list for `CCC(=C(c1ccc(O)cc1)c1ccc(OCCN(C)C(=O)/C(=C/c2ccc(OC)c(O)c2)c2cc(OC)c(OC)c(OC)c2)cc1)c1ccc(O)cc1` (mixture of isomers) [Compound 28, (E)-N-(2-{4-[(E/Z)-1,2-Bis-(4-hydroxyphenyl)but-1-enyl]-phenoxy}ethyl)-3-(3-hydroxy-4-methoxyphenyl)-N-methyl-2-(3,4,5-trimethoxyphenyl)acrylamide]?
GI50 (MOLT-4; Homo sapiens, five-dose screen): 1520 nM; GI% (10^−5 M) (MOLT-4; one-dose 10 µM): 64.31%; GI% (10^−5 M) (A498; A498 (Renal Cancer), one-dose 10 µM): 2.94%; CC50 (A498; Homo sapiens, A498, five-dose screen, read-out: LC50 (the source's name)): 32.6 µM; GI% (10^−5 M) (OVCAR-3): 1%; GI50 (SF-268; Homo sapiens, five-dose screen): 1690 nM; GI% (10^−5 M) (SF-268; one-dose 10 µM): 84.22%; GI% (10^−5 M) (HL-60 (TB); one-dose 10 µM): 100 ^d,f %; GI50 (HL-60 (TB); Homo sapiens, five-dose screen): 1400 nM; GI% (10^−5 M) (HOP-62; one-dose 10 µM): 81.99%; GI50 (HOP-62; Homo sapiens, five-dose screen): 2860 nM; GI% (10^−5 M) (HT29; one-dose 10 µM): 100 ^d,l %; GI50 (HT29; Homo sapiens, HT-29, five-dose screen): 1160 nM; GI50 (NCI-H332M; Homo sapiens, five-dose screen): 2020 nM; GI% (10^−5 M) (NCI-H332M; one-dose 10 µM): 81.7%; GI% (10^−5 M) (LOX IMV1): 1.55%; GI% (10^−5 M) (EKVX; one-dose 10 µM): 85.11%; GI50 (EKVX; Homo sapiens, five-dose screen): 2010 nM; GI50 (SW-620; Homo sapiens, five-dose screen): 1210 nM; GI% (10^−5 M) (SW-620; one-dose 10 µM): 81.32%; GI50 (NCI-H23; Homo sapiens, NCI-H23): 2190 nM; LC50 (NCI-H23; Homo sapiens, NCI-H23, five-dose screen): 48.9 µM; GI% (10^−5 M) (NCI-H23; NCI-H23 (Non-Small Cell Lung Cancer), one-dose 10 µM): 97% and 96.76%; GI% (10^−5 M) (MDA-MB-231/ATCC): 1.61%; GI% (10^−5 M) (NCI/ADR-RES): 6.02%; GI% (10^−5 M) (IGROV1): 2.3%; GI% (10^−5 M) (HCT-116; one-dose 10 µM): 98% and 97.57%; GI50 (HCT-116; Homo sapiens, five-dose screen): 1800 nM; GI% (10^−5 M) (COLO 205; COLO 205 (Colon Cancer), one-dose 10 µM): 100 ^d,i %; GI50 (COLO 205; Homo sapiens, COLO 205): 2150 nM; LC50 (COLO 205; Homo sapiens, COLO 205, five-dose screen): 26.2 µM; GI50 (SNB-19; Homo sapiens, five-dose screen): 1720 nM; GI% (10^−5 M) (SNB-19; one-dose 10 µM): 81.49%; % Cell Death at 10 μM [1]: 17%; CC50 (NCI 60 cell lines; in all but 4 cell lines of the panel, read-out: LC50 (the source's name)): > 50 µM; GI50 (NCI 60 cell lines; read-out: MG-MID, mean GI50): 1450 nM; GI50 (NCI 60 cell lines; read-out: log GI50 (mean) (converted)): 1620 nM; inhibition at 10 µM (NCI 60 cell lines; read-out: mean growth inhibition value): 98.7%; GI50 (SF295; Homo sapiens, SF-295, five-dose screen): 1740 nM; GI% (10^−5 M) (SF295; one-dose 10 µM): 73.4%; CC50 (SK-MEL-5; Homo sapiens, five-dose screen, read-out: LC50 (the source's name)): 34.5 µM; lethality (SK-MEL-5; one-dose screen 10 μM): 60%; GI% (10^−5 M) (OVCAR-5): 3.21%; GI% (10^−5 M) (UO-31): 2.66%; IC50 [2]: 2480 nM; GI% (10^−5 M) (786-0): 1.91%; GI% (10^−5 M) (HOP-92; one-dose 10 µM): 86.19%; GI50 (HOP-92; Homo sapiens, five-dose screen): 764 nM
